In patent US4347252A, “Rodenticidal 1-(3,5-bistrifluoromethylphenyl)-3-(4-t-butylpiperidino)prop-1-yne” (priority 1980, dated 1982):

Tests used:
[1] = test system: Warfarin-resistant rats (Rattus norvegicus); test: Field Tests on Rats on three farms; type: in vivo
Method: Field Tests on Rats (Rattus norvegicus)
Field tests were carried out on warfarin-resistant rats on three farms. Baits were prepared from either medium oatmeal or soaked wheat in which was incorporated 0.1% by weight of the test compound used in Test 2 hereinbefore described. […] The amount of bait eaten per day was determined by weighing and the presence or absence of rats was deduced from the amount of bait eaten and by counting the traces of the presence of rats in patches of dust laid for this purpose.

[2] = test system: Warfarin-resistant mice (Mus musculus); test: Laboratory Feeding Tests on Wild Rodents: mice; type: in vivo; details: 0.1% by weight in bait
Text: Laboratory Feeding Tests on Wild Rodents
Warfarin-resistant rats (Rattus norvegicus) and mice (Mus musculus) from wild populations were fed, in the laboratory, on a bait consisting of coarse oatmeal (90%), wholemeal flour (5%) and corn oil (5%). After feeding for four days on this bait, it was replaced by a treated bait of the same composition, in which 0.1% by weight of the test compound 1-(3,5-bistrifluoromethylphenyl)-3-(4-tert-butylpiperidino)prop-1-yne hydrochloride had been incorporated.

## CC(C)(C)C1CCN(CC#Cc2cc(C(F)(F)F)cc(C(F)(F)F)c2)CC1.Cl [1-(3,5-bistrifluoromethylphenyl)-3-(4-tert-butylpiperidino)prop-1-yne hydrochloride]
[1]; Farm 1
  Total number of dead rats observed during test: 44
[1]; Farm 1, Day 1, 0.1% by weight in bait
  Amount of bait eaten: 2060 g
[1]; Farm 1, Day 2
  Amount of bait eaten: 440 g
[1]; Farm 1, Day 3
  Amount of bait eaten: 130 g
[1]; Farm 1, Day 4
  Amount of bait eaten: 60 g
[1]; Farm 1, Day 6
  Amount of bait eaten: 245 g
[1]; Farm 1, Day 7
  Amount of bait eaten: 130 g
[1]; Farm 1, Day 8
  Amount of bait eaten: 85 g
[1]; Farm 1, Day 9
  Amount of bait eaten: 30 g
[1]; Farm 1, Day 10
  Amount of bait eaten: 10 g
[1]; Farm 1, Day 11
  Amount of bait eaten: 40 g
[1]; Farm 1, Day 14
  Amount of bait eaten: 65 g
[1]; Farm 2
  Total number of dead rats observed during test: 8
[1]; Farm 2, Day 1, 0.1% by weight in bait
  Amount of bait eaten: 1455 g
[1]; Farm 2, Day 2
  Amount of bait eaten: 1100 g
[1]; Farm 2, Day 3
  Amount of bait eaten: 730 g
[1]; Farm 2, Day 4
  Amount of bait eaten: 210 g
[1]; Farm 2, Day 7
  Amount of bait eaten: 405 g
[1]; Farm 2, Day 8
  Amount of bait eaten: 135 g
[1]; Farm 2, Day 9
  Amount of bait eaten: 40 g
[1]; Farm 2, Day 10
  Amount of bait eaten: 30 g
[1]; Farm 2, Day 11
  Amount of bait eaten: 10 g
[1]; Farm 2, Day 14
  Amount of bait eaten: 95 g
[1]; Farm 2, Day 15
  Amount of bait eaten: 45 g
[1]; Farm 2, Day 16
  Amount of bait eaten: 0 g
[1]; Farm 3
  Total number of dead rats observed during test: 113
[1]; Farm 3, Day 1, 0.1% by weight in bait
  Amount of bait eaten: 4800 g
[1]; Farm 3, Day 2
  Amount of bait eaten: 2680 g
[1]; Farm 3, Day 3
  Amount of bait eaten: 360 g
[1]; Farm 3, Day 4
  Amount of bait eaten: 445 g
[1]; Farm 3, Day 7
  Amount of bait eaten: 565 g
[1]; Farm 3, Day 8
  Amount of bait eaten: 205 g
[1]; Farm 3, Day 9
  Amount of bait eaten: 185 g
[1]; Farm 3, Day 10
  Amount of bait eaten: 65 g
[1]; Farm 3, Day 11
  Amount of bait eaten: 15 g
[1]; by the fourth day of the tests
  rats initially present on the farms killed (estimated): about 80%
[1]; by the fourth day, vs usual kill with anticoagulant rodenticides used similarly
  percentage kill compared with anticoagulant rodenticides: significantly higher percentage kill
[2]; female mice
  Days to Death, Mean: 5.8 days
  Mortality: 5/5
[2]; male mice
  Days to Death, Mean: 6.2 days
  Mortality: 5/5
